According to patent US20250275964A1, “METHODS OF INHIBITING LIVER-TYPE GLUTAMINASE, GLS2” (CORNELL UNIVERSITY, priority 2019, published 2025):

What was measured:
Hs 578T cells = experiment: 6-day cell proliferation assay, Hs 578T; type: cell-based, human; conditions: proliferation over 6 days
Procedure: (§1) Human breast cancer cell lines MCF7, BT-474, T-47D, MDA-MB-453, MDA-MB-231, Hs 578T, HCC38, SK-BR-3, and DU4475 were purchased from the American Type Culture Collection (ATCC) and no additional cell authentication was performed. The TSE human breast cancer cell line was supplied by Dr. Steven Abcouwer (University of Michigan). All breast cancer cells were cultured at 37° C. under a 5% CO2 atmosphere in RPMI 1640 medium containing 2 mM glutamine (Gibco) and supplemented with 10% fetal bovine serum (FBS) (Gibco). The 293T cell line (ATCC) used for generating lentivirus particles was cultured as above but using DMEM, high glucose (Gibco).
(§2) Culture medium was added to 12-well plates (1 ml/well) and wells were seeded with cells at Day 0 as follows. MCF7, T-47D, BT-474, HCC38 cells: […] cells/well. MDA-MB-453 and MDA-MB-231 cells: 1×10^4 cells/well. TSE and Hs 578T cells: 0.3×10^4 cells/well. After 16 hours, culture medium was replaced with fresh medium supplemented with appropriate concentrations of inhibitors and was subsequently replaced every 48 hours. On Day 6 cells were trypsinized and suspended in an appropriate volume of culture medium, and the total number of cells per well was determined using a hemocytometer or a TC20 Automated Cell Counter (Bio-Rad).

DU4475 cells = experiment: 6-day cell proliferation assay, DU4475; type: cell-based, human; conditions: DU4475, proliferation over 6 days
Procedure: as §1, §2

[1] = test system: MDA-MB-453 xenograft tumors; experiment: MDA-MB-453 xenograft tumor growth in mice; type: in vivo; conditions: 10 mg/kg, 3 times per week from Day 14 for three weeks, NSG mice
Procedure: All experiments involving mice were carried out according to protocols approved by the Institutional Animal Care and Use Committee at Cornell University. In all cases, 6-8 week old female NOD.Cg-Prkdcscid Il2rg^tm1Wjl/SzJ (NSG) mice (The Jackson Laboratory) were used. For xenograft experiments, a suspension of MDA-MB-453 breast cancer cells (or derivative cell lines stably expressing shRNAs) was mixed 1:1 with Matrigel Matrix (BD Biosciences) to give a final concentration of 3×10^6 cells per 100 μl, and 3×10^6 cells were immediately injected into each of the two flanks of 6-8 week old female NOD.Cg-Prkdc^scid Il2rg^tm1Wjl/SzJ (NSG) mice (n=3 mice per condition). Tumor sizes were measured using calipers, and estimated volumes were calculated using the formula V=(π/6)×length×width^2, as described previously (Tomayko et al., “Determination of Subcutaneous Tumor Size in Athymic (Nude) Mice,” Cancer Chemother Pharmacol. 24:148-154 (1989), which is hereby incorporated by reference in its entirety). For experiments using MDA-MB-453 cells stably expressing shRNAs, mice were sacrificed after 6 weeks. For 968 treatment studies, when tumors of 1-2 mm diameter were detected, the mice were randomly divided into two groups and intraperitoneal (IP) injections of 968 (10 mg/kg) solution or carrier solution were initiated and carried out three times weekly. […]

T-47D cells = experiment: 6-day cell proliferation assay, T-47D; type: cell-based, human; conditions: proliferation over 6 days
Procedure: as §1, §2

MCF7 cells = experiment: 6-day cell proliferation assay, MCF7; type: cell-based, human; conditions: MCF7, proliferation over 6 days
Procedure: as §1, §2

SMILES | EC50 (Hs 578T cells) [µM] | EC50 (DU4475 cells) [µM] | tumor growth [1] | EC50 (T-47D cells) [µM] | EC50 (MCF7 cells) [µM]
O=C(Cc1ccccc1)Nc1nnc(CCSCCc2nnc(NC(=O)Cc3ccccc3)s2)s1 [BPTES] | 3.7 | > 20 | did not significantly impact tumor growth | ~20 | ~20
CN(C)c1ccc(C2Nc3ccc4ccccc4c3C3=C2C(=O)CC(C)(C)C3)cc1Br (stereo not shown) [Compound 968] | 4 | 4 | robustly inhibited | 4 | 4
